The values that follow come from ChEMBL document CHEMBL3992482 (Medchemcomm, 2016).

pIC50: −log10 of the molar value. Active and inactive are the calls of the source. The rule behind the calls is not given here.

As usually defined, the pIC50 is the IC50 on a negative log10 scale, so that one unit is a factor of ten.

Test [1] has as its system HeLa. The test can be described thus: Cytotoxicity against human HeLa cells assessed as reduction in cell viability after 48 hrs by MTT assay. Type of test: functional, cell-based.
The test system of another test is MCF7. Put plainly: Cytotoxicity against human MCF7 cells assessed as reduction in cell viability after 48 hrs by MTT assay. The following applies: MCF7, 48 h. The format is functional, cell-based. Background: Tetrazolium dyes change colour on reduction, which living cells bring about.
A further test deals with A549. The test can be described thus: Cytotoxicity against human A549 cells assessed as reduction in cell viability after 48 hrs by MTT assay. Type of test: functional, cell-based. As to conditions: A549, 48 h.
In test [2] the test system is HeLa. Put plainly: Cell cycle arrest in human HeLa cells assessed as accumulation at G2/M phase at 10 uM after 24 hrs by propidium iodide staining based flow cytometry (reference value: 9.89%). Type of test: functional. On the technique in general: In flow cytometry, cells or beads pass a laser one at a time.
In test [3] the test system is HeLa. The test can be described thus: Cell cycle arrest in human HeLa cells assessed as accumulation at G1 phase at 5 uM after 24 hrs by propidium iodide staining based flow cytometry (reference value: 66.42%). The format is functional.
Test [4] relates to HeLa. The test can be described thus: Induction of apoptosis in human HeLa cells assessed as live cells at 10 uM after 24 hrs by Annexin-V FITC/propidium iodide staining based flow cytometry (reference value: 95.5%). Type of test: functional.
The test system of test [5] is HeLa. The test can be described thus: Induction of apoptosis in human HeLa cells assessed as late apoptotic cells at 10 uM after 24 hrs by Annexin-V FITC/propidium iodide staining based flow cytometry (reference value: 0.29%). Type of test: functional.
Test [6] relates to HeLa. Put plainly: Induction of apoptosis in human HeLa cells assessed as early apoptotic cells at 10 uM after 24 hrs by Annexin-V FITC/propidium iodide staining based flow cytometry (reference value: 2.36%). The format is functional.
The test system of test [7] is HeLa. The test can be described thus: Cell cycle arrest in human HeLa cells assessed as accumulation at G2/M phase at 5 uM after 24 hrs by propidium iodide staining based flow cytometry (reference value: 9.89%). Type of test: functional.
The subject of test [8] is HeLa. Put plainly: Cell cycle arrest in human HeLa cells assessed as accumulation at S phase after 24 hrs by propidium iodide staining based flow cytometry. Type of test: functional.
Test [9] deals with HeLa. Put plainly: Cell cycle arrest in human HeLa cells assessed as accumulation at G1 phase at 10 uM after 24 hrs by propidium iodide staining based flow cytometry (reference value: 66.42%). Type of test: functional.
Test [10] deals with HeLa. Put plainly: Induction of apoptosis in human HeLa cells after 24 hrs by Annexin-V FITC/propidium iodide staining based flow cytometry. Type of test: functional, cell-based.
The subject of test [11] is HeLa. The test can be described thus: Induction of apoptosis in human HeLa cells assessed as necrotic cells at 10 uM after 24 hrs by Annexin-V FITC/propidium iodide staining based flow cytometry (reference value: 1.81%). The format is functional.
Test [12] relates to HeLa. The test can be described thus: Cell cycle arrest in human HeLa cells assessed as accumulation at S phase at 10 uM after 24 hrs by propidium iodide staining based flow cytometry (reference value: 23.69%). Type of test: functional.
Test [13] relates to HeLa. The test can be described thus: Induction of apoptosis in human HeLa cells assessed as early apoptotic cells at 5 uM after 24 hrs by Annexin-V FITC/propidium iodide staining based flow cytometry (reference value: 2.36%). The format is functional.
Test [14] deals with HeLa. Put plainly: Induction of apoptosis in human HeLa cells assessed as crescent shaped cell masses at 5 to 10 uM after 24 hrs by […] staining based fluorescence microscopic method. The format is functional.
Test [15] concerns HeLa. The test can be described thus: Induction of apoptosis in human HeLa cells assessed as necrotic cells at 5 uM after 24 hrs by Annexin-V FITC/propidium iodide staining based flow cytometry (reference value: 1.81%). Type of test: functional.
Test [16] has as its system HeLa. The test can be described thus: Induction of apoptosis in human HeLa cells assessed as nuclear fragmentation after 24 hrs by acridine orange/ethidium bromide staining based fluorescence confocal microscopic method. The format is functional, cell-based.
For test [17], the system named is HeLa. Put plainly: Cell cycle arrest in human HeLa cells assessed as accumulation at S phase at 5 uM after 24 hrs by propidium iodide staining based flow cytometry (reference value: 23.69%). The format is functional.
Test [18] relates to HeLa. The test can be described thus: Induction of apoptosis in human HeLa cells assessed as live cells at 5 uM after 24 hrs by Annexin-V FITC/propidium iodide staining based flow cytometry (reference value: 95.5%). Type of test: functional.
Test [19] concerns HeLa. The test can be described thus: Induction of apoptosis in human HeLa cells assessed as ring shaped cell masses at 5 to 10 uM after 24 hrs by […] staining based fluorescence microscopic method. Type of test: functional.
For test [20], the system named is HeLa. The test can be described thus: Induction of apoptosis in human HeLa cells assessed as late apoptotic cells at 5 uM after 24 hrs by Annexin-V FITC/propidium iodide staining based flow cytometry (reference value: 0.29%). The format is functional.
The subject of test [21] is HeLa. Put plainly: Induction of apoptosis in human HeLa cells assessed as chromatin condensation after 24 hrs by acridine orange/ethidium bromide staining based fluorescence confocal microscopic method. Type of test: functional, cell-based.

Take `CC(=O)O[C@H]1C(=O)[C@@]2(C)[C@H]([C@H](OC(=O)c3ccccc3)[C@]3(O)C[C@H](OC(=O)[C@H](O)[C@@H](NC(=O)c4ccccc4)c4ccccc4)C(C)=C1C3(C)C)[C@]1(OC(C)=O)CO[C@@H]1C[C@@H]2O` [PACLITAXEL]: the pIC50 with HeLa [1] was 4.71; in the test with MCF7, 4.85; in the test on A549, 4.68.
Taken in the same sequence, the figures for `CC(C)(C)c1nc(Nc2ccc(Cl)c(Cl)c2)sc1Cc1ccc2c(c1)OCO2` were 5.11, 4.95 and 4.94.
Taken in the same sequence, the figures for `CC(C)(C)c1nc(Nc2cc(Cl)cc(Cl)c2)sc1Cc1ccc2c(c1)OCO2` were 5.24, 4.75 and 4.77.
For `CC(C)(C)c1nc(Nc2ccccn2)sc1Cc1ccc2c(c1)OCO2` the same measures were 5.32, 5.33 and 5.29.
`Cc1ccc2cccc(Nc3nc(C(C)(C)C)c(Cc4ccc5c(c4)OCO5)s3)c2n1`: the figures for the pIC50 in the test on HeLa [1], in the test with MCF7 and in the test on A549 were 4.19, less than 3.70 and 4.26, respectively.
Taken in the same sequence, the figures for `CC(C)(C)c1nc(Nc2ccc([N+](=O)[O-])cc2F)sc1Cc1ccc2c(c1)OCO2` were 4.71, 4.48 and 4.17.
In the case of `CC(C)(C)c1nc(Nc2cc(C(F)(F)F)cc(C(F)(F)F)c2)sc1Cc1ccc2c(c1)OCO2`, the Activity with HeLa [2] turned out to be 17.93%; with HeLa [3] it was 56.87%; with HeLa [4], 35.1%; in the test with HeLa [5], 1.94%; in the test on HeLa [6], 62.7%; with HeLa [7], 16.03%. In addition, the Activity result was “Dose-dependent effect” with HeLa [8]; 46.14% in the test with HeLa [9]; “Dose-dependent effect” in the test on HeLa [10]; 0.23% in the test on HeLa [11]; 35.93% with HeLa [12]; 19.2% with HeLa [13]. In addition, the Activity is 0.69% in the test with HeLa [15]; “Dose-dependent effect” in the test with HeLa [16]; 27.1% in the test with HeLa [17]; 77.8% in the test on HeLa [18]; 2.27% in the test on HeLa [20]; “Dose-dependent effect” with HeLa [21]. Also, the figures for the pIC50 in the test on HeLa [1], in the test with MCF7 and with A549 were 5.68, 5.04 and 5.45, respectively. The result with HeLa [14] and in the test with HeLa [19] was Active.
Turning to `CC(C)(C)c1nc(Nc2cccc(Br)c2)sc1Cc1ccc2c(c1)OCO2`, the pIC50 in the test with HeLa [1] was 5.19; in the test with MCF7, 5.33; in the test with A549, 5.30.
Taken in the same sequence, the figures for `CC(C)(C)c1nc(Nc2ccccc2)sc1Cc1ccc2c(c1)OCO2` were 4.92, 4.94 and 4.69.
Taken in the same sequence, the figures for `CC(C)(C)c1nc(Nc2ccc(F)cc2)sc1Cc1ccc2c(c1)OCO2` were 4.60, 4.82 and 5.24.
Take `CC(C)(C)c1nc(Nc2ccc(Cl)cc2)sc1Cc1ccc2c(c1)OCO2`: the results for the pIC50 with HeLa [1], with MCF7 and in the test on A549 were 4.96, 5.46 and 5.04, respectively.
For `Cc1cccc(C)c1Nc1nc(C(C)(C)C)c(Cc2ccc3c(c2)OCO3)s1`, the pIC50 in the test on HeLa [1] is 4.08; in the test on MCF7, 4.70; in the test with A549, 4.80.
Turning to `Cc1ccc(Nc2nc(C(C)(C)C)c(Cc3ccc4c(c3)OCO4)s2)cc1C`, the negative-log IC50 (pIC50) with HeLa [1] was 4.68; in the test with MCF7 it was 4.69; in the test with A549, 4.92.
Taken in the same sequence, the figures for `O=c1[nH]cc(F)c(=O)[nH]1` [FLUOROURACIL] were 4.25, 4.10 and 4.59.
For `CC(C)(C)c1nc(Nc2ccc(Br)cc2)sc1Cc1ccc2c(c1)OCO2` the same measures were 4.88, 5.33 and 5.00.
For `Cc1cccc(Nc2nc(C(C)(C)C)c(Cc3ccc4c(c3)OCO4)s2)c1` the same measures were 4.73, 5.31 and 4.90.
On to `Cc1ccccc1Nc1nc(C(C)(C)C)c(Cc2ccc3c(c2)OCO3)s1`, for which the pIC50 in the test on HeLa [1] was 4.61; in the test on MCF7, 4.72; with A549, 4.73.
Taken in the same sequence, the figures for `COc1ccc(Nc2nc(C(C)(C)C)c(Cc3ccc4c(c3)OCO4)s2)cc1` were 4.93, 5.03 and 4.99.
`CCOC(=O)c1ccc(Nc2nc(C(C)(C)C)c(Cc3ccc4c(c3)OCO4)s2)cc1`: the pIC50 with HeLa [1] is 4.32; in the test with MCF7, 5.23; with A549 it was 5.07.
Taken in the same sequence, the figures for `CC(C)(C)c1nc(Nc2ccccc2[N+](=O)[O-])sc1Cc1ccc2c(c1)OCO2` were 3.71, less than 3.70 and 4.08.
Taken in the same sequence, the figures for `CC(C)(C)c1nc(Nc2ccccc2Br)sc1Cc1ccc2c(c1)OCO2` were 4.28, 4.40 and 4.58.
Taken in the same sequence, the figures for `CC(C)(C)c1nc(Nc2ccccc2F)sc1Cc1ccc2c(c1)OCO2` were 4.74, 5.35 and 5.12.
`CC(C)(C)c1nc(Nc2cccc(Cl)c2Cl)sc1Cc1ccc2c(c1)OCO2`: the pIC50 with HeLa [1] was 4.46; in the test with MCF7, 4.71; in the test with A549, 4.85.
Taken in the same sequence, the figures for `CC(C)(C)c1nc(Nc2cccc(C(F)(F)F)c2)sc1Cc1ccc2c(c1)OCO2` were 4.89, 5.48 and 4.80.
Taken in the same sequence, the figures for `CC(C)(C)c1nc(Nc2cccc(Cl)c2)sc1Cc1ccc2c(c1)OCO2` were 5.08, 5.52 and 5.69.
Taken in the same sequence, the figures for `CC(C)(C)c1nc(Nc2ccc([N+](=O)[O-])cc2)sc1Cc1ccc2c(c1)OCO2` were 5.38, 5.59 and 5.08.
With `CC(C)(C)c1nc(Nc2c(Br)cc(OC(F)(F)F)cc2Br)sc1Cc1ccc2c(c1)OCO2`, the pIC50 with HeLa [1] is 4.27; in the test with MCF7, 3.99; in the test on A549 it was 3.99.
For `CC(C)(C)c1nc(Nc2ccccc2Cl)sc1Cc1ccc2c(c1)OCO2`, the pIC50 was 4.72 in the test on HeLa [1], 5.05 with MCF7 and 5.16 with A549.
For `Cc1ccc(Nc2nc(C(C)(C)C)c(Cc3ccc4c(c3)OCO4)s2)c(C)c1` the same measures were 4.72, 4.73 and 4.95.
Taken in the same sequence, the figures for `CC(C)(C)c1nc(Nc2cccc3ccccc23)sc1Cc1ccc2c(c1)OCO2` were 4.85, 4.65 and 4.26.
For `CC(C)(C)c1nc(Nc2ccc([N+](=O)[O-])cc2Cl)sc1Cc1ccc2c(c1)OCO2` the same measures were 4.29, 4.12 and 4.09.
`CC(C)(C)c1nc(Nc2ccc(C(F)(F)F)cc2)sc1Cc1ccc2c(c1)OCO2`: the pIC50 was 4.98 with HeLa [1], 5.45 with MCF7 and 5.04 with A549.
